Assay results: publication PMC2766634 (Journal of medicinal chemistry, 2009)

Assays:
[1] = system: G. lamblia (WB/C6, GS/M, 106, and 713); assay: Antigiardial growth inhibition; format: cell-based, Giardia lamblia; details: IC50 in HeLa cells / EC50 in Giardia
[2] = Cyclic voltammetry in water pH 7.0; format: physicochemical; details: pH 7.0 phosphate buffer, 0.1 M KCl, 25 °C
[3] = system: G. lamblia GS/M; assay: Murine G. lamblia infection model; format: in vivo, Giardia lamblia in C57BL/6 mice; details: mice, five doses over 3 days; for effect on infection (trophozoites in small intestine) at 10 mg/kg: 10 mg/kg oral gavage
[4] = Cyclic voltammetry in DMSO; format: physicochemical; details: for E1/2 in DMSO (half-wave potential, 0/−1 reduction), mean ± SE: cyclic voltammetry, 0.10 M NBu4PF6 in DMSO, 25 °C, 100 mV/s; for E1/2 more positive than Mz: in DMSO, relative to Mz
[5] = system: HeLa cells; assay: Cytotoxicity assay; format: cell-based, human; details: Homo sapiens, HeLa, 48 h, read-out: toxicity in HeLa cells, pIC50 (mean ± SE) (converted)

SMILES | selectivity ratio, IC50/EC50 [1] | Ep in water (peak potential), mean ± SE [2] | effect on infection (trophozoites in small intestine) at 2 mg/kg ([3]; 2 mg/kg oral gavage) | effect on infection (trophozoites in small intestine) at 10 mg/kg [3] | E1/2 in DMSO (half-wave potential, 0/−1 reduction), mean ± SE [4] | E1/2 more positive than Mz [4] | IC50 [5]
Cn1ccnc1/C=C/c1ncc([N+](=O)[O-])n1C [compound 28, 1-Methyl-2-[(E)-2-(1-methyl-1H-imidazol-2-yl)vinyl]-5-nitro-1H-imidazole] | 1,202 | −0.594 ± 0.014 V vs SCE | significant activity | complete clearance of the infection | −1.497 ± 0.001 V vs Fc | 50–65 mV | 
Cn1c([N+](=O)[O-])cnc1/C=C/c1ccccc1 [compound 5, 1-Methyl-5-nitro-2-[(E)-2-phenylvinyl]-1H-imidazole] |  | −0.634 ± 0.004 V vs SCE |  | complete clearance of the infection | −1.517 ± 0.001 V vs Fc | 30–50 mV | 
Cn1c([N+](=O)[O-])cnc1/C=C/c1ccco1 [compound 29, 2-[(E)-2-(2-Furyl)vinyl]-1-methyl-5-nitro-1H-imidazole] | 2,754 |  |  | complete clearance of the infection | −1.504 ± 0.003 V vs Fc | 50–65 mV | 93.3 µM
